{
  "source": "patent US20130252983A1",
  "about": "“ACTIVATING PHOSPHORYLATION SITE ON GLUTAMINASE C” (CORNELL UNIVERSITY, priority 2010, published 2013)",
  "key": {"normal NIH 3T3 cells": {"system": "normal NIH 3T3 cells", "assay": "Growth and morphology of control NIH 3T3 cells", "type": "cell-based, mouse", "conditions": "10% calf serum; 10 μM (growth), 5 μM (morphology)", "procedure": "FIGS. 1A-E illustrate that the small molecule 968 inhibits cellular transformation. […] Cells were fixed and stained with crystal violet for counting of foci. Right: 968 was serially diluted (10, 5, 2.5, and 1.25 μM) and evaluated for its ability to inhibit focus formation. […] After 6 days, the cells were counted. 100% represents the number of Dbl-transformed cells counted in the absence of 968 (27.5×10^4 cells). Data represent the average of 3 experiments (±s.d.). […] At the indicated times, the cells were counted. Data represent the average of 3 experiments (±s.d.)."}, "MDA-MB231 cells": {"system": "MDA-MB231 cells", "assay": "Growth to high density and in low serum, MDA-MB231", "type": "cell-based, human", "conditions": "10 μM", "procedure": "FIGS. 2A-G illustrate effects of 968 on the transforming activity of constitutively active Rho GTPases and human breast cancer cells. […] Cells were scored after 14 days and plotted as the percentage of the total number of colonies greater than 50 μm in diameter. Data represent the average of 3 experiments (±s.d.). […] Data represent the average of 3 experiments (±s.d.). […] Data represent the average of 3 experiments (±s.d.). […] After 24 hours at 37° C., the migratory cells were fixed, stained with GIEMSA, and counted. Data represent the average of 3 experiments (±s.d.). […] Data represent the average of 3 experiments (±s.d.). […] Data represent the average of 3 experiments (±s.d.). […] Data represent the average of 3 experiments (±s.d.)."}, "[1]": {"target": "T1, GA activity of NIH 3T3 cells stably expressing Dbl or Cdc42(F28L) (Mus musculus, UniProt D3Z7P3)", "T1 construct": "endogenous in cells; host or cells: NIH 3T3 cells stably expressing Dbl or Cdc42(F28L); mitochondrial fraction", "T1 sequence (D3Z7P3 55-603 isoform D3Z7P3-2)": "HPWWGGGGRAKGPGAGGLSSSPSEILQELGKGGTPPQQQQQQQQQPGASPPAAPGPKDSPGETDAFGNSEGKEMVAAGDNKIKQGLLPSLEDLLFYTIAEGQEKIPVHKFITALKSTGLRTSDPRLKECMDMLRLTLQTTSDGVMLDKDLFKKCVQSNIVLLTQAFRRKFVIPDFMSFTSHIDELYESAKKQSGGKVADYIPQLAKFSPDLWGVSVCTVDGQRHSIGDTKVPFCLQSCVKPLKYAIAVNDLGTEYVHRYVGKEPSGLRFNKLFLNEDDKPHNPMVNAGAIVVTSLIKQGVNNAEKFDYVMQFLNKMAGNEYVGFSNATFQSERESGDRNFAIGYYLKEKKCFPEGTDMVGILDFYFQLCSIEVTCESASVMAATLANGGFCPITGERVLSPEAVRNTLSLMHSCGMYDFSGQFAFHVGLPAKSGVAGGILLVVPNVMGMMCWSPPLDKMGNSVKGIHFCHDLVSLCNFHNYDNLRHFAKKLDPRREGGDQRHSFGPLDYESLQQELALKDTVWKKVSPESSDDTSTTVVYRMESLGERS", "assay": "GA activity in mitochondrial fractions of treated transformed NIH 3T3 cells", "type": "cell-based", "conditions": "10 μM, 48 hours", "procedure": "100%=620 moles of glutamine hydrolyzed per minute per mole of enzyme. Data represent the average of 3 experiments (±s.d.). […] Following precipitation of the beads and re-suspension, the samples were analyzed by Western blotting with anti-V5 antibody. […] Data represent the average of 3 experiments (±s.d.). […] Data represent the average of 3 experiments (±s.d.). […] Data represent the average of 3 experiments (±s.d.). FIG. 3E NIH 3T3 cells transiently expressing Dbl were assayed for focus formation in the presence of 10 μM 968 alone or together with 7 mM dimethyl α-ketoglutarate. […] 100%=680 nM glutamine hydrolyzed per minute per 10^5 cells. Data are the average of 3 experiments (±s.d.). […] 100%=750 nM glutamine hydrolyzed per minute per 10^5 cells. Data represent the average of 3 experiments (±s.d.).\nFIGS. 4A-E illustrate the role of glutaminase C activity in cellular transformation. […] Data represent the average of 3 experiments (±s.d.). […] Data represent the average of 3 experiments (±s.d.). […] 100% represents the activity measured in untreated Dbl-transformed cells. The data represent the average of 2 experiments. […] 100% represents the activity measured in untreated SKBR3 cells. The data represent the average of 2 experiments. […] Data represent the average of 3 experiments (±s.d.).\nFIGS. 11A-E illustrate the effects of different treatments on GA activity. […] The addition of Pi stimulated the GA activity in control 3T3 cells, Dbl-expressing cells, and Cdc42(F28L)-expressing cells by ˜6-fold, 2-fold, and 3-fold, respectively. 100% represents the Pi-stimulated activity measured for Dbl-transformed cells that were not treated with 968. Data is the average of 3 experiments (±s.d.). […] The addition of Pi stimulated the GA activity of HMECs, MDA-MB231 cells, and SKBR3 cells by ˜5-fold, 2-fold, and 1.4-fold, respectively. 100% represents the Pi-stimulated activity for SKBR3 cells that were not treated with 968. Data are the average of 3 experiments (±s.d.). […] Mitochondrial fractions were prepared from equal numbers of cells and assayed for GA activity in the presence or absence of 133 mM Pi. The data are plotted as the percentage of GA activity measured for untreated SKBR3 cells and represent the average of 2 experiments. […] 100% represents the Pi-stimulated activity measured for untreated Dbl-transformed cells. The data represent the average of 2 experiments. […] 100% represents the Pi-stimulated activity for untreated SKBR3 cells. The data represent the average of 2 experiments.\nDbl expressing NIH 3T3 cells were treated for 48 hours in the presence or absence of 968 (10 μM), Bay 11-7082 (2 μM) or Rapamycin (100 nM). Mitochondria were then isolated from the treated cells and assayed for glutaminase activity in the absence or presence of phosphate.\nMitochondrial preparations were obtained using the mitochondria isolation kit from QIAGEN (Cat #37612). A suspension containing 2×10^7 cells was transferred into a 50 ml conical tube and centrifuged at 500×g for 10 minutes at 4° C. The pellets were resuspended in 2 ml of ice-cold lysis buffer (supplied by QIAGEN) and incubated for 10 minutes at 4° C. using an end-over-end shaker. The lysates were centrifuged at 1000×g for 10 minutes at 4° C., and the pellets were resuspended in a buffer supplied by the manufacturer and disrupted completely by using a blunt-ended, 23-gauge needle and a syringe, followed by centrifugation at 6000×g for 20 minutes at 4° C. […]"}},
  "data": [
    {"smiles": "CN(C)c1ccc(C2Nc3ccc4ccccc4c3C3=C2C(=O)CC(C)(C)C3)cc1Br", "note": "(centres unmarked) [Compound 968, 5-[3-bromo-4-(dimethylamino)phenyl]-2,2-dimethyl-2,3,5,6-tetrahydrobenzo[a]]", "values": [
      {"measurement": "effect on growth or morphology of normal NIH 3T3 cells", "setting": "normal NIH 3T3 cells", "result": "no significant effects"},
      {"measurement": "growth in low serum", "setting": "MDA-MB231 cells; 1% fetal bovine serum", "result": "inhibits their growth"},
      {"measurement": "growth to high density", "setting": "MDA-MB231 cells; 10% fetal bovine serum, 6 days", "result": "inhibits their growth"},
      {"measurement": "GA activity of transformed cells", "setting": "[1]", "result": "inhibits their GA activity"},
      {"measurement": "sensitivity of basal versus phosphate-stimulated GA activity", "setting": "[1]; with or without 133 mM Pi", "result": "basal activity being more sensitive than the phosphate-stimulated activity"}
    ]}
  ]
}
